ChEMBL document CHEMBL4680262, “Development of oxathiino[6,5-b]pyridine 2,2-dioxide derivatives as selective inhibitors of tumor-related carbonic anhydrases IX and XII” (Eur J Med Chem, 2020)

How the values were obtained:
[1] = molecular target: Carbonic anhydrase 1 (Homo sapiens, UniProt P00915); test: Inhibition of recombinant human carbonic anhydrase 1 incubated for 6 hrs prior to testing measured for 10 to 100 secs by phenol red-based stopped-flow CO2 hydration assay
[2] = molecular target: Carbonic anhydrase 9 (Homo sapiens, UniProt Q16790); test: Inhibition of recombinant human carbonic anhydrase 9 incubated for 6 hrs prior to testing measured for 10 to 100 secs by phenol red-based stopped-flow CO2 hydration assay
[3] = molecular target: Carbonic anhydrase 2 (Homo sapiens, UniProt P00918); test: Inhibition of recombinant human carbonic anhydrase 2 incubated for 6 hrs prior to testing measured for 10 to 100 secs by phenol red-based stopped-flow CO2 hydration assay
[4] = tested on: MCF7; test: Cytotoxicity against human MCF7 cells assessed as reduction in cell viability incubated for 48 hrs by MTT assay; assay type: functional, cell-based; details: MCF7, 48 h
[5] = tested on: A549; test: Cytotoxicity against human A549 cells assessed as reduction in cell viability incubated for 48 hrs by MTT assay; assay type: functional, cell-based; details: A549, 48 h
[6] = tested on: HeLa; test: Cytotoxicity against human HeLa cells assessed as reduction in cell viability incubated for 48 hrs by MTT assay; assay type: functional, cell-based

Carbonic anhydrase 1, sequence (P00915 whole entry): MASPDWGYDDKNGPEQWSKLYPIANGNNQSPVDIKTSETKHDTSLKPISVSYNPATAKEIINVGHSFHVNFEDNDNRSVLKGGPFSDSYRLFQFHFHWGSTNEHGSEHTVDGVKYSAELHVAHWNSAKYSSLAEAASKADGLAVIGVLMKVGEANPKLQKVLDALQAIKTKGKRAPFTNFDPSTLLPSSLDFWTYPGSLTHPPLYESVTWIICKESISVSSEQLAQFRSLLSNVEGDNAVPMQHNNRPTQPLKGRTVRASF

Row | SMILES | Ki [1] [µM] | Ki [2] [µM] | Ki [3] [µM] | IC50 [4] [µM] | IC50 [5] [µM] | IC50 [6] [µM]
1 | O=S1(=O)C=Cc2cc(-c3ccc(OC(F)(F)F)cc3)cnc2O1 | > 100 | 0.2 | > 100 | – | – | –
2 | O=S1(=O)C=Cc2cc(-c3ccc(-c4ccccc4)cc3)cnc2O1 | > 100 | 0.21 | > 100 | – | – | –
3 | O=S1(=O)C=Cc2cc(-c3cccc4ccccc34)cnc2O1 | – | 0.221 | – | – | – | –
4 | O=S1(=O)C=Cc2cc(-c3ccccc3)cnc2O1 | > 100 | 0.134 | > 100 | – | – | –
5 | COc1cccc(-c2cnc3c(c2)C=CS(=O)(=O)O3)c1 | > 100 | 0.137 | > 100 | – | – | –
6 | O=S1(=O)C=Cc2cccnc2O1 | 64.1 | 0.169 | 14 | – | – | –

The next compounds have a lower Ki [2] than those just listed; values first:

Row | Ki [1] [µM] | Ki [2] [µM] | Ki [3] [µM] | SMILES | IC50 [4] [µM] | IC50 [5] [µM] | IC50 [6] [µM]
7 | > 100 | 0.0868 | > 100 | COc1ccc(-c2cnc3c(c2)C=CS(=O)(=O)O3)cc1 | – | – | –
8 | > 100 | 0.0863 | > 100 | O=S1(=O)C=Cc2cc(-c3ccc(Cl)cc3)cnc2O1 | – | – | –
9 | – | 0.0701 | – | O=S1(=O)C=Cc2cc(-c3ccc(C(F)(F)F)cc3)cnc2O1 | 75 | 77 | 42
10 | > 100 | 0.0569 | > 100 | O=S1(=O)C=Cc2cc(-c3cc(Cl)cc(Cl)c3)cnc2O1 | 20 | 14 | 4.8
11 | – | 0.0314 | – | CC(C)(C)c1ccc(-c2cnc3c(c2)C=CS(=O)(=O)O3)cc1 | > 500 | 149 | 171
